# Biological target: human APJ receptor (Homo sapiens (Human), UniProt P35414)
# Assay: [35S]GTPγS binding assay on membranes from CHO cells stably expressing human APJ receptor
# Format: biochemical
# Conditions: read-out: Activity hAPJ SPA EC50 IP
# Outline: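 Agonist-driven [35S]GTPγS (0.2 nM) binding was measured over 90 min at room temperature on human APJ-expressing CHO membranes with bead capture, in buffer containing 3 μM GDP, 200 mM NaCl and 5 mM MgCl2 (pH 7.5). Excess unlabelled GTPγS (100 μM) gave nonspecific signal; EC50 from non-linear fits.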
# Chain of human APJ receptor (P35414 whole entry): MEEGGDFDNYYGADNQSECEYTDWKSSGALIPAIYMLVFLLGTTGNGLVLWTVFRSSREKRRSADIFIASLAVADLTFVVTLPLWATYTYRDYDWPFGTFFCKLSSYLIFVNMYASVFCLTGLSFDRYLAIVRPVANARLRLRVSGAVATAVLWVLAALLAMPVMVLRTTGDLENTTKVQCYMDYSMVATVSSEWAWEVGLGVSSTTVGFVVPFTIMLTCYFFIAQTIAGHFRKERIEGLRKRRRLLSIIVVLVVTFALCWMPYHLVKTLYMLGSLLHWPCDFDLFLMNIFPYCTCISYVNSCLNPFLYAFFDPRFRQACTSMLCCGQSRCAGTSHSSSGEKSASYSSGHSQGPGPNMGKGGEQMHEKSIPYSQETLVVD
row,Molecule,EC50
1,"(1S,2S)-N-(4-(2,6-dimethoxyphenyl)-5-((3R)-tetrahydro-3-furanyl)-4H-1,2,4-triazol-3-yl)-1-(5-methyl-2-pyridinyl)-1-(2-propanyloxy)-2-propanesulfonamide or (1S,2S)-N-(4-(2,6-dimethoxyphenyl)-5-((3S)-tetrahydro-3-furanyl)-4H-1,2,4-triazol-3-yl)-1-(5-methyl-2-pyridinyl)-1-(2-propanyloxy)-2-propanesulfonamide [Example 407.0]",10 nM
2,"(1S,2S)-N-(4-(4,6-dimethoxypyrimidin-5-yl)-5-((R)-tetrahydrofuran-3-yl)-4H-1,2,4-triazol-3-yl)-1-isopropoxy-1-(5-methylpyridin-2-yl)propane-2-sulfonamide or (1S,2S)-N-(4-(4,6-dimethoxypyrimidin-5-yl)-5-((S)-tetrahydrofuran-3-yl)-4H-1,2,4-triazol-3-yl)-1-isopropoxy-1-(5-methylpyridin-2-yl)propane-2-sulfonamide [Example 323.0]",47 nM
3,"COc1cccc(OC)c1-n1c(NS(=O)(=O)[C@@H](C)[C@H](C)c2ncc(F)cn2)nnc1[C@H]1CCOC1 (single isomer, unassigned) [Example 273.0, (2S,3R)-N-(4-(2,6-dimethoxyphenyl)-5-((R)-tetrahydrofuran-3-yl)-4H-1,2,4-triazol-3-yl)-3-(5-fluoropyrimidin-2-yl)butane-2-sulfonamide or (2S,3R)-N-(4-(2,6-dimethoxyphenyl)-5-((S)-tetrahydrofuran-3-yl)-4H-1,2,4-triazol-3-yl)-3-(5-fluoropyrimidin-2-yl)butane-2-sulfonamide]",29 nM
4,"COc1ncnc(OC)c1-n1c(NS(=O)(=O)[C@@H](C)[C@H](OC)c2ncc(Cl)cn2)nnc1C1CCCOC1 (single isomer, unassigned) [Example 91.0, (1R,2S)-1-(5-chloropyrimidin-2-yl)-N-(4-(4,6-dimethoxypyrimidin-5-yl)-5-((S)-tetrahydro-2H-pyran-3-yl)-4H-1,2,4-triazol-3-yl)-1-methoxypropane-2-sulfonamide or (1R,2S)-1-(5-chloropyrimidin-2-yl)-N-(4-(4,6-dimethoxypyrimidin-5-yl)-5-((R)-tetrahydro-2H-pyran-3-yl)-4H-1,2,4-triazol-3-yl)-1-methoxypropane-2-sulfonamide]",290 nM
5,"(1S,2S)-1-(5-chloro-2-pyrimidinyl)-N-(4-cyclopropyl-5-((2S,5S)-5-methyltetrahydro-2-furanyl)-4H-1,2,4-triazol-3-yl)-1-(2-propanyloxy)-2-propanesulfonamide or (1S,2S)-1-(5-chloro-2-pyrimidinyl)-N-(4-cyclopropyl-5-((2R,5R)-5-methyltetrahydro-2-furanyl)-4H-1,2,4-triazol-3-yl)-1-(2-propanyloxy)-2-propanesulfonamide [Example 353.0]",100 nM
6,"(1R,2S)-1-(5-chloro-2-pyrimidinyl)-N-(4-(1,3-dimethoxy-2-propanyl)-5-((2R)-5,5-dimethyltetrahydro-2-furanyl)-4H-1,2,4-triazol-3-yl)-1-methoxy-2-propanesulfonamide or (1R,2S)-1-(5-chloro-2-pyrimidinyl)-N-(4-(1,3-dimethoxy-2-propanyl)-5-((2S)-5,5-dimethyltetrahydro-2-furanyl)-4H-1,2,4-triazol-3-yl)-1-methoxy-2-propanesulfonamide [Example 307.0]",14 nM
7,"CO[C@H](c1ncc(Cl)cn1)[C@H](C)S(=O)(=O)Nc1nnc([C@@H]2COCCO2)n1C1CCOCC1 (single isomer, unassigned) [Example 248.0, (1R,2S)-1-(5-chloro-2-pyrimidinyl)-N-(5-((2R)-1,4-dioxan-2-yl)-4-(tetrahydro-2H-pyran-4-yl)-4H-1,2,4-triazol-3-yl)-1-methoxy-2-propanesulfonamide or (1R,2S)-1-(5-chloro-2-pyrimidinyl)-N-(5-((2S)-1,4-dioxan-2-yl)-4-(tetrahydro-2H-pyran-4-yl)-4H-1,2,4-triazol-3-yl)-1-methoxy-2-propanesulfonamide]",0.58 nM
8,"(1R,2S)-N-(4-([1,1′-bi(cyclopropyl)]-1-yl)-5-((2R)-1,4-dioxan-2-yl)-4H-1,2,4-triazol-3-yl)-1-methoxy-1-(5-methyl-2-pyrazinyl)-2-propanesulfonamide or (1R,2S)-N-(4-([1,1′-bi(cyclopropyl)]-1-yl)-5-((2S)-1,4-dioxan-2-yl)-4H-1,2,4-triazol-3-yl)-1-methoxy-1-(5-methyl-2-pyrazinyl)-2-propanesulfonamide [Example 329.0]",1300 nM
9,"COc1cccc(OC)c1-n1c(NS(=O)(=O)[C@@H](C)[C@H](C)c2ncc(Cl)cn2)nnc1[C@H]1CCN(C(=O)OC(C)(C)C)C1 (stereo in doubt) [Example 42.0, tert-butyl (3S)-3-(5-((((1S,2R)-2-(5-chloro-2-pyrimidinyl)-1-methylpropypsulfonyl)amino)-4-(2,6-dimethoxyphenyl)-4H-1,2,4-triazol-3-yl)-1-pyrrolidinecarboxylate or tert-butyl (3R)-3-(5-((((1S,2R)-2-(5-chloro-2-pyrimidinyl)-1-methylpropypsulfonyl)amino)-4-(2,6-dimethoxyphenyl)-4H-1,2,4-triazol-3-yl)-1-pyrrolidinecarboxylate]",210 nM
10,"COc1cccc(OC)c1-n1c(NS(=O)(=O)CCc2ncc(Cl)cn2)nnc1[C@@H]1CCOC1 [Example 386.0, 2-(5-chloro-2-pyrimidinyl)-N-(4-(2,6-dimethoxyphenyl)-5-((3S)-tetrahydro-3-furanyl)-4H-1,2,4-triazol-3-yl)ethanesulfonamide]",81 nM
11,"(1S,2S)-N-(4-(2,6-dimethoxyphenyl)-5-((S)-1,4-dioxan-2-yl)-4H-1,2,4-triazol-3-yl)-1-isopropoxy-1-(5-methylpyrimidin-2-yl)propane-2-sulfonamide and (1S,2S)-N-(4-(2,6-dimethoxyphenyl)-5-((R)-1,4-dioxan-2-yl)-4H-1,2,4-triazol-3-yl)-1-isopropoxy-1-(5-methylpyrimidin-2-yl)propane-2-sulfonamide [Example 256.0]",15 nM
12,"COc1ncnc(OC)c1-n1c(NS(=O)(=O)[C@@H](C)[C@H](C)c2ccc(Cl)cn2)nnc1[C@@H]1CCOC1 (single isomer, unassigned) [Example 37.0, (2S,3R)-3-(5-chloro-2-pyridinyl)-N-(4-(4,6-dimethoxy-5-pyrimidinyl)-5-((3S)-tetrahydro-3-furanyl)-4H-1,2,4-triazol-3-yl)-2-butanesulfonamide or (2S,3R)-3-(5-chloro-2-pyridinyl)-N-(4-(4,6-dimethoxy-5-pyrimidinyl)-5-((3R)-tetrahydro-3-furanyl)-4H-1,2,4-triazol-3-yl)-2-butanesulfonamide]",12 nM
13,"(2S,3R)-3-(5-chloropyrimidin-2-yl)-N-(4-(4,6-dimethoxypyrimidin-5-yl)-5-((R)-5,5-dimethyltetrahydrofuran-3-yl)-4H-1,2,4-triazol-3-yl)butane-2-sulfonamide or (2S,3R)-3-(5-chloropyrimidin-2-yl)-N-(4-(4,6-dimethoxypyrimidin-5-yl)-5-((S)-5,5-dimethyltetrahydrofuran-3-yl)-4H-1,2,4-triazol-3-yl)butane-2-sulfonamide [Example 318.0]",13 nM

# — patent US10150760B2, “Compounds for use in preparing heterocyclic triazole agonists of the APJ receptor” (AMGEN INC., priority 2016, dated 2018)
